In patent publication US20260166159A1, “KRAS G12D DEGRADATION AGENT, AND PREPARATION METHOD AND USE THEREFOR” (LEADINGTAC PHARMACEUTICAL (SHAOXING) CO., LTD., priority 2022, published 2026):

Key:
Format in all cases: cell-based
KRAS-G12D [1] = target: T1, KRAS-G12D (Homo sapiens, UniProt P01116, G12D); test: KRAS-G12D degradation assay (Western Blot), A-427 cells; details: A427 cells, 24 h; for Dmax: A-427
T1 construct: endogenous in cells; host or cells: A-427 (ATCC), AGS, AsPc-1, Panc 04.03
Summary of the method: (§1)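 Each KRAS G12D mutant line (A-427, AGS, AsPc-1, Panc 04.03) was seeded at 5×10^5 cells/well and treated 24 h at 37 °C with 0.03–3000 nM compound (final DMSO 0.25%). KRAS in lysates was measured by Western blot, normalized to β-actin and compared with controls, giving DC50 and Dmax from curve fits.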

KRAS-G12D [2] = target: T1, KRAS-G12D; test: KRAS-G12D degradation assay (Western Blot), AGS cells; details: 24 h
Method: (§2) The degradation effects of the compounds on KRAS-G12D were investigated on KRAS G12D mutant human lung cancer cell A-427 (ATCC), KRAS G12D mutant human gastric cancer cell AGS, KRAS G12D mutant human metastatic pancreatic cancer cell AsPc-1, and KRAS G12D mutant human pancreatic adenocarcinoma cell Panc 04.03. The specific procedures were as follows: 0.95 mL of cells were seeded into each well of a 24-well cell culture plate to achieve a cell density of 5×10^5 cells/well; and the cell plate was incubated in an incubator at 37° C. with 5% CO2 overnight. Then 50 μL of the compound solution after dilution was added to each of the wells with the corresponding cells, so that the final concentration of the compound was in a range of 0.03-3000 nM. The final concentration of DMSO was 0.25%. After the compounds were added, the cell plate was incubated in the incubator at 37° C. with 5% CO2 for 24 h. The culture medium in the 24-well cell culture plate was removed, and the plate was washed twice with 1×PBS (KeyGEN). 120 μL of RIPA (strong) lysis buffer (Beyotime) supplemented with 1 mM phenylmethylsulfonyl fluoride, a protease inhibitor mixture (Beyotime), and a protease phosphatase inhibitor mixture (Beyotime) was added to lyse adherent A-427 cells at the bottom of the cell culture plate. After the plate was left to stand on ice for 30 min, the protein lysate in each well was transferred to a 1.5 mL centrifuge tube and centrifuged at 15000 g for 20 min at 4° C. The cell lysate supernatants after centrifugation were cryopreserved in a refrigerator at −80° C. for later use.
(§3) After the samples of the cell lysate supernatants that had been prepared were thawed from the refrigerator at −80° C., the total protein concentrations of the cell lysates were determined using a BCA protein quantification kit (Tiangen). The total protein concentrations of the samples were then adjusted to 0.5 μg/μL with PBS and 5×SDS-PAGE protein loading buffer (Beyotime), and the samples were incubated in a water bath at 100° C. for 15 min. The samples were then incubated in an ice bath for 5 min and centrifuged at 14000 g for 1 min at 4° C., and the supernatants were mixed well as loading samples for the Western Blot assay. The samples were loaded into wells of a 10% precast gel (KeyGEN) with a loading volume of 10 μL (total protein: 5 μg), a sufficient Tris-MOPS-SDS running buffer (Adamas) was added, and then electrophoresis was performed at a constant voltage of 120 V for 55 min. After the electrophoresis, the proteins on the gel were transferred to PVDF membranes at a constant current of 250 mA for 55 min. After the membrane transfer, the PVDF membranes were incubated in 1× Quick Block blocking buffer (Beyotime) at room temperature for 30 min. After the blocking, the PVDF membranes were separately incubated at 4° C. overnight with the KRAS antibody (Abcam) diluted in a ratio of 1:1000 and the […] antibody (Abcam) diluted in a ratio of 1:2000 in 5% BSA as the diluent, and then washed with 1×TBST buffer (2.4 g of Tris, 8.8 g of NaCl, 1.5 mL of Tween 20, with pH adjusted to 7.4, with the volume brought to 1 L) 3 times for 10 min/time. The membranes were incubated with a secondary antibody (Abcam) diluted in 5% BSA at room temperature for 2 h, and then washed with 1×TBST buffer 3 times for 10 min/time. Finally, the membranes were incubated with Clarity Western ECL Substrate (BIO-RAD) for 5 min for luminescence and color development, and a ChemiScope 6200 Touch chemiluminescence imaging system (Clinx) was used for color development and protein mapping. Gray value analysis of the protein maps was performed using the chemiluminescence analysis software (Clinx). The gray correction value for each sample was calculated using the formula: gray correction value=(gray value of target protein/gray value of corresponding internal reference)×10^3. Then degradation rates were calculated by comparison with the gray correction value of the control group. […]

KRAS-G12D [3] = target: T1, KRAS-G12D; test: KRAS-G12D degradation assay (Western Blot), AsPc-1 cells; details: for DC50: 24 h; for Dmax: ASPC1, 24 h
Summary of the method: as §1

KRAS-G12D [4] = target: T1, KRAS-G12D; test: KRAS-G12D degradation assay (Western Blot), Panc 04.03 cells; details: 24 h
Method: as §2, §3

[5] = tested on: KRAS G12D mutant human lung cancer cell A427; test: 3D cell proliferation inhibition assay, A427; details: A-427, 168 h, A427, 7 days, CTG
Summary of the method: (§4)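 CellTiter-Glo luminescence, read after 60 min at room temperature, measured growth of 3D cultures (5×10^2 cells/well) exposed for 7 days to compounds at final concentrations of 10000–0.026 nM in 0.2% DMSO. Percent inhibition, scaled between DMSO-treated cells and medium alone, was fitted against log concentration for IC50.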

[6] = tested on: KRAS G12D mutant human gastric cancer cell AGS; test: 3D cell proliferation inhibition assay, AGS; details: 168 h, 7 days, CTG
Summary of the method: as §4

[7] = tested on: KRAS G12D mutant human metastatic pancreatic cancer cell AsPc-1; test: 3D cell proliferation inhibition assay, AsPc-1; details: ASPC1, 168 h, AsPc-1, 7 days, CTG
Summary of the method: as §4

[8] = tested on: KRAS G12D mutant human pancreatic cancer cell Panc 04.03; test: 3D cell proliferation inhibition assay, Panc 04.03; details: 168 h, Panc 04.03, 7 days, CTG
Summary of the method: as §4

[9] = tested on: KRAS G12D mutant human pancreatic cancer cell HPAC; test: 3D cell proliferation inhibition assay, HPAC; details: 168 h, 7 days, CTG
Summary of the method: as §4

T1 sequence (P01116 1-188 isoform P01116-2 G12D): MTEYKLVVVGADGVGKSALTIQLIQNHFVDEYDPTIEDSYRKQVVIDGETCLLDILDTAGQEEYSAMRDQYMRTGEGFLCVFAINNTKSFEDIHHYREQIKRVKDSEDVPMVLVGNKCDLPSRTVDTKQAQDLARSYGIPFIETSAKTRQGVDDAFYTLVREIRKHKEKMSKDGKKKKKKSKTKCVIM

CCc1cccc2cc(O)cc(-c3ncc4c(N5CC6CCC(C5)N6)nc(OCC5(CN6CCN(CC7CCC8(CC7)CCN(C(=O)c7ccc(Cl)c(N9CCC(=O)NC9=O)c7)CC8)CC6)CC5)nc4c3F)c12 [Example 50, 1-(5-(9-((4-((1-(((4-(3,8-diazabicyclo[3.2.1]octan-3-yl)-7-(8-ethyl-3-hydroxynaphthalen-1-yl)-8-fluoropyrido[4,3-d]pyrimidin-2-yl)oxy)methyl)cyclopropyl)methyl)piperazin-1-yl)methyl)-3-azaspiro [5.5]undecane-3-carbonyl)-2-chlorophenyl)dihydropyrimidine-2,4(1H,3H)-dione]
DC50 (KRAS-G12D [1]; class symbols): ≤ 50 nM | Dmax (KRAS-G12D [1]; class symbols): 80 to 100% | DC50 (KRAS-G12D [2]): 1.73 nM | Dmax (KRAS-G12D [2]): 97.3% | DC50 (KRAS-G12D [3]): 33.1 nM | Dmax (KRAS-G12D [3]): 100% | DC50 (KRAS-G12D [4]): 31.9 nM | Dmax (KRAS-G12D [4]): 99.3% | IC50 ([5]; class symbols): ≤ 50 nM | IC50 ([6]; class symbols): ≤ 50 nM | IC50 ([7]; class symbols): ≤ 50 nM | IC50 ([8]; class symbols): ≤ 50 nM | IC50 [9]: 11.6 nM

CCc1cccc2cc(O)cc(-c3ncc4c(N5CC6CCC(C5)N6)nc(OCC5(CN6CCN(CC7CCC8(CC7)CCN(C(=O)c7ccc(C)c(N9CCC(=O)NC9=O)c7)CC8)CC6)CC5)nc4c3F)c12 [Example 51, 1-(5-(9-((4-((1-(((4-(3,8-diazabicyclo[3.2.1]octan-3-yl)-7-(8-ethyl-3-hydroxynaphthalen-1-yl)-8-fluoropyrido[4,3-d]pyrimidin-2-yl)oxy)methyl)cyclopropyl)methyl)piperazin-1-yl)methyl)-3-azaspiro[5.5]undecane-3-carbonyl)-2-methylphenyl)dihydropyrimidine-2,4(1H,3H)-dione]
DC50 (KRAS-G12D [1]; class symbols): ≤ 50 nM | Dmax (KRAS-G12D [1]; class symbols): 80 to 100% | DC50 (KRAS-G12D [2]): 9.87 nM | Dmax (KRAS-G12D [2]): 97.2% | DC50 (KRAS-G12D [3]): 4.79 nM | Dmax (KRAS-G12D [3]): 99.4% | DC50 (KRAS-G12D [4]): 23 nM | Dmax (KRAS-G12D [4]): 93.8% | IC50 ([5]; class symbols): ≤ 50 nM | IC50 ([6]; class symbols): ≤ 50 nM | IC50 ([7]; class symbols): ≤ 50 nM | IC50 ([8]; class symbols): ≤ 50 nM | IC50 [9]: 4.55 nM

C#Cc1c(F)ccc2cc(O)cc(-c3ccc4c(N5CC6CCC(C5)N6)nc(OCC5(CN6CCN(CC7CCC8(CC7)CCN(C(=O)c7ccc(OC)c(N9CCC(=O)NC9=O)c7)CC8)CC6)CC5)nc4c3F)c12 [Example 71, 1-(5-(9-((4-((1-(((4-(3,8-diazabicyclo[3.2.1]octan-3-yl)-7-(8-ethynyl-7-fluoro-3-hydroxynaphthalen-1-yl)-8-fluoroquinazolin-2-yl)oxy)methyl)cyclopropyl)methyl)piperazin-1-yl)methyl)-3-azaspiro[5.5]undecane-3-carbonyl)-2-methoxyphenyl)dihydropyrimidine-2,4(1H,3H)-dione]
DC50 (KRAS-G12D [1]; numeric values): 2.1 nM | Dmax (KRAS-G12D [1]; numeric values): 95% | DC50 (KRAS-G12D [2]): 7.02 nM | Dmax (KRAS-G12D [2]): 99.6% | DC50 (KRAS-G12D [3]): 4.76 nM | Dmax (KRAS-G12D [3]): 98.6% | DC50 (KRAS-G12D [4]): 11.9 nM | Dmax (KRAS-G12D [4]): 98.8% | IC50 ([5]; numeric values): 46.8 nM | IC50 ([6]; numeric values): 4.17 nM | IC50 ([7]; numeric values): 5.28 nM | IC50 ([8]; numeric values): 16.7 nM | IC50 [9]: 9.31 nM

CCc1c(F)ccc2cc(O)cc(-c3ccc4c(N5CC6CCC(C5)N6)nc(OCC5(CN6CCN(CC7CCC8(CC7)CCN(C(=O)c7ccc(OC)c(N9CCC(=O)NC9=O)c7)CC8)CC6)CC5)nc4c3F)c12 [Example 73, 1-(5-(9-((4-((1-(((4-(3,8-diazabicyclo[3.2.1]octan-3-yl)-7-(8-ethyl-7-fluoro-3-hydroxynaphthalen-1-yl)-8-fluoroquinazolin-2-yl)oxy)methyl)cyclopropyl)methyl)piperazin-1-yl)methyl)-3-azaspiro[5.5]undecane-3-carbonyl)-2-methoxyphenyl)dihydropyrimidine-2,4(1H,3H)-dione]
DC50 (KRAS-G12D [1]; numeric values): 19.8 nM | Dmax (KRAS-G12D [1]; numeric values): 87.2% | DC50 (KRAS-G12D [2]): 16 nM | Dmax (KRAS-G12D [2]): 85.7% | DC50 (KRAS-G12D [3]): 35.7 nM | Dmax (KRAS-G12D [3]): 100% | DC50 (KRAS-G12D [4]): 27.1 nM | Dmax (KRAS-G12D [4]): 95.6% | IC50 ([5]; numeric values): 3.54 nM | IC50 ([6]; numeric values): 21.1 nM | IC50 ([7]; numeric values): 14.9 nM | IC50 ([8]; numeric values): 64.8 nM | IC50 [9]: 14.7 nM

CCc1c(F)ccc2cc(O)cc(-c3ccc4c(N5CC6CCC(C5)N6)nc(OCC5(CN6CCN(CC7CCC8(CC7)CCN(C(=O)c7ccc(C)c(N9CCC(=O)NC9=O)c7)CC8)CC6)CC5)nc4c3F)c12 [Example 75, 1-(5-(9-((4-((1-(((4-(3,8-diazabicyclo[3.2.1]octan-3-yl)-7-(8-ethyl-7-fluoro-3-hydroxynaphthalen-1-yl)-8-fluoroquinazolin-2-yl)oxy)methyl)cyclopropyl)methyl)piperazin-1-yl)methyl)-3-azaspiro[5.5]undecane-3-carbonyl)-2-methylphenyl)dihydropyrimidine-2,4(1H,3H)-dione]
DC50 (KRAS-G12D [1]; numeric values): 4.13 nM | Dmax (KRAS-G12D [1]; numeric values): 83.8% | DC50 (KRAS-G12D [2]): 57.8 nM | Dmax (KRAS-G12D [2]): 89.2% | DC50 (KRAS-G12D [3]): 8.79 nM | Dmax (KRAS-G12D [3]): 99.5% | DC50 (KRAS-G12D [4]): 9.38 nM | Dmax (KRAS-G12D [4]): 92% | IC50 ([5]; numeric values): 88.1 nM | IC50 ([6]; numeric values): 9.1 nM | IC50 ([7]; numeric values): 14.8 nM | IC50 ([8]; numeric values): 83.9 nM | IC50 [9]: 11.3 nM

C#Cc1cccc2cc(O)cc(-c3ccc4c(N5CC6CCC(C5)N6)nc(OCC5(CN6CCN(CC7CCC8(CC7)CCN(C(=O)c7ccc(C)c(N9CCC(=O)NC9=O)c7)CC8)CC6)CC5)nc4c3F)c12 [Example 77, 1-(5-(9-((4-((1-(((4-(3,8-diazabicyclo[3.2.1]octan-3-yl)-7-(8-ethynyl-3-hydroxynaphthalen-1-yl)-8-fluoroquinazolin-2-yl)oxy)methyl)cyclopropyl)methyl)piperazin-1-yl)methyl)-3-azaspiro[5.5]undecane-3-carbonyl)-2-methylphenyl)dihydropyrimidine-2,4(1H,3H)-dione]
DC50 (KRAS-G12D [1]; numeric values): 1.76 nM | Dmax (KRAS-G12D [1]; numeric values): 94.5% | DC50 (KRAS-G12D [2]): 1.47 nM | Dmax (KRAS-G12D [2]): 100% | DC50 (KRAS-G12D [3]): 13.2 nM | Dmax (KRAS-G12D [3]): 98.2% | DC50 (KRAS-G12D [4]): 26.2 nM | Dmax (KRAS-G12D [4]): 98.5% | IC50 ([5]; numeric values): 17.8 nM | IC50 ([6]; numeric values): 8.9 nM | IC50 ([7]; numeric values): 6.75 nM | IC50 ([8]; numeric values): 31.5 nM | IC50 [9]: 9.54 nM
